The values below come from patent publication US8927500B2, “Peptidomimetic macrocycles” (Aileron Therapeutics, Inc., priority 2012, dated 2015).

One experiment has as its target MDM2 (Homo sapiens, UniProt Q00987). The experiment in a line: Competitive fluorescence polarization assay for MDM2. The experiment is classed as binding. The following applies: for Ki: read-out: Ki (MDM2). (In fluorescence polarisation assays a small probe gives low polarisation when free and higher when bound to something large.)
The target in a further experiment is T1, MDMX (Homo sapiens, UniProt O15151).
T1 sequence (O15151 1-125): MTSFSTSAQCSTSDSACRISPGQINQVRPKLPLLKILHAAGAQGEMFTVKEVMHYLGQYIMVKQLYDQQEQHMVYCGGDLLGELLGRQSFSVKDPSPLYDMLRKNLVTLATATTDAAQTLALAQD
Description: Competitive fluorescence polarization assay for MDMX. The following applies: competitive FP assay; for IC50: read-out: IC50 (MDMX); for Ki: read-out: Ki (MDMX). The experiment is classed as binding.

The next experiment relates to Caspase 3. The experiment in a line: Caspase 3 detection assay in SJSA1 cells. It counts as cell-based. The following applies: 48 h, Caspase 3 activation over DMSO-treated cells; for caspase 3 uM: 3 uM peptide; for caspase 10 uM: 10 uM peptide; for caspase 30 uM: 30 uM peptide; for caspase 0.3 uM: 0.3 uM peptide.
The mark [1] stands for this setting: competitive FP assay, MDM2, read-out: IC50 (MDM2).

Structures are written as SMILES. Where two headings read alike, the source gives them in different places. Where a SMILES comes first, the peptide text is derived from it. Bridges are numbered along the chain shown (N, C = ends). [ ]: non-standard residue; d: D form. dPhe(4-CF3) = N[C@H](Cc1ccc(C(F)(F)F)cc1)C(=O)O; R8 = C=CCCCCCC[C@@](C)(N)C(=O)O; S8 = C=CCCCCCC[C@](C)(N)C(=O)O; R5 = C=CCCC[C@@](C)(N)C(=O)O; S5 = C=CCCC[C@](C)(N)C(=O)O; Aib = CC(C)(N)C(=O)O

MDM2, sequence (Q00987 1-125): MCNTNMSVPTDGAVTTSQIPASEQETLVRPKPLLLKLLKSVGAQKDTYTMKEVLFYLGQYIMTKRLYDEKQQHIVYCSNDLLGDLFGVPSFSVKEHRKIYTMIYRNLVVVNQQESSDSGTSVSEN
Description for MDM2: Dilute 1 mM (in 100% DMSO) of FAM labeled linear peptide with DMSO to 100 μM (dilution 1:10). Then, dilute from 100 μM to 10 μM with water (dilution 1:10) and then dilute with FP buffer from 10 μM to 40 nM (dilution 1:250). This is the working solution which will be a 10 nM concentration in well (dilution 1:4). […] Then, dilute from 5 mM to 500 μM with H2O (dilution 1:10) and then dilute with FP buffer from 500 μM to 20 μM (dilution 1:25).
Dilute 1 mM (in 100% DMSO) of FAM labeled linear peptide with DMSO to 100 μM (dilution 1:10). Then, dilute from 100 μM to 10 μM with water (dilution 1:10) and then dilute with FP buffer from 10 μM to 40 nM (dilution 1:250). This is the working solution which will be a 10 nM concentration in well (dilution 1:4). […] Dilute 10 mM (in 100% DMSO) with DMSO to 5 mM (dilution 1:2). Then, dilute from 5 mM to 500 μM with H2O (dilution 1:10) and then dilute with FP buffer from 500 μM to 20 μM (dilution 1:25). […] Transfer 10 μl of serial diluted unlabeled peptides to each well which is filled with 20 μl of 300 nM of protein. • 7. Add 10 μl of 10 nM (4×) of FAM labeled peptide into each well and incubate for 3 hr to read.

Take `CC[C@H](C)[C@H](NC(=O)[C@H](C)NC(=O)[C@H](C)NC(=O)[C@]1(C)CCCC=CCCCCCC[C@@](C)(NC(=O)[C@H](Cc2ccccc2)NC(=O)[C@@H](NC(=O)[C@H](CC(C)C)NC(C)=O)[C@@H](C)O)C(=O)N[C@@H](C)C(=O)N[C@@H](Cc2ccc(O)cc2)C(=O)N[C@@H](Cc2c[nH]c3ccccc23)C(=O)N[C@@H](C)C(=O)N[C@@H](CCC(N)=O)C(=O)N[C@@H](CC(C)C)C(=O)N1)C(=O)N[C@H](C)C(N)=O` (single isomer, unassigned) [compound 70]: the IC50 at MDM2 (setting [1]) was in the range of 100 to 1000 nM. In addition, at MDM2 (competitive FP assay, MDM2), the Ki was below 10 nM. Moreover, at MDMX, the IC50 was in the range of 100 to 1000 nM and the Ki is 10 to 100 nM. Also, in the experiment with Caspase 3, the “caspase 3 uM” value was determined as 1, the “caspase 10 uM” value is reported as 9 and the “caspase 30 uM” value amounted to 26.

For `CC(=O)N[C@@H](CC(C)C)C(=O)N[C@H](C(=O)N[C@@H](Cc1ccccc1)C(=O)N[C@]1(C)CCCCCCC=CCCC[C@@](C)(C(=O)N[C@@H](C)C(=O)N[C@H](C(=O)NCC(N)=O)C(C)C)NC(=O)[C@H](CC(C)C)NC(=O)[C@H](CCC(N)=O)NC(=O)[C@H](C)NC(=O)[C@H](Cc2c[nH]c3ccccc23)NC(=O)[C@H](Cc2ccc(O)cc2)NC(=O)[C@H](C)NC1=O)[C@@H](C)O` (single isomer, unassigned) [compound 109], in the experiment on Caspase 3, the “caspase 3 uM” value was determined as 4, the “caspase 10 uM” value is 16 and the “caspase 30 uM” value was determined as 25.

In the case of `CC(=O)N[C@@H](C)C(=O)N[C@@H](C)C(=O)N[C@@H](CC(C)C)C(=O)N[C@H](C(=O)N[C@@H](Cc1ccccc1)C(=O)N[C@]1(C)CCCCCCC=CCCC[C@@](C)(C(=O)N[C@@H](CO)C(=O)N[C@@H](C)C(=O)N[C@@H](C)C(=O)N[C@@H](C)C(=O)N[C@H](C)C(N)=O)NC(=O)[C@H](CC2CCC2)NC(=O)[C@H](CCC(N)=O)NC(=O)[C@H](C)NC(=O)[C@H](Cc2c[nH]c3ccccc23)NC(=O)[C@H](Cc2ccc(O)cc2)NC(=O)[C@H](CCC(=O)O)NC1=O)[C@@H](C)O` (single isomer, unassigned) [compound 358], in the experiment with Caspase 3, the “caspase 0.3 uM” value turned out to be 1, the “caspase 3 uM” value is listed as 3, the “caspase 10 uM” value came to 6 and the “caspase 30 uM” value came to 24. In addition, in the experiment with Caspase 3 (1 uM peptide), the “caspase 1 uM” value was found to be 2.

With `CC(=O)N[C@@H](CC(C)C)C(=O)N[C@H](C(=O)N[C@@H](Cc1ccccc1)C(=O)N[C@]1(C)CCCCCCC=CCCC[C@@](C)(C(=O)N[C@@H](CO)C(=O)N[C@@H](C)C(=O)NC(C)(C)C(N)=O)NC(=O)[C@H](CC(C)C)NC(=O)[C@H](CCC(N)=O)NC(=O)[C@H](C)NC(=O)[C@H](Cc2c[nH]c3ccccc23)NC(=O)[C@H](Cc2ccc(O)cc2)NC(=O)[C@H](C)NC1=O)[C@@H](C)O` [compound 10] (Ac-LTF[R8]AYWAQL[S5]SA[Aib]-NH2; staple 4-11), the IC50 on MDM2 (setting [1]) is 100 to 1000 nM. In addition, at MDM2 (competitive FP assay, MDM2), the Ki fell in the range of 10 to 100 nM. Further, on MDMX, the IC50 is 100 to 1000 nM and the Ki fell in the range of 10 to 100 nM. In the experiment on Caspase 3, the “caspase 0.3 uM” value is 1, the “caspase 3 uM” value worked out at 1, the “caspase 10 uM” value is 17 and the “caspase 30 uM” value turned out to be 32.

Regarding `CC(=O)N[C@@H](CC(C)C)C(=O)N[C@H](C(=O)N[C@@H](Cc1ccccc1)C(=O)N[C@]1(C)CCCCCCC=CCCC[C@@](C)(C(=O)N[C@@H](C)C(=O)N[C@@H](Cc2c[nH]cn2)C(=O)N[C@@H](Cc2ccccc2)C(=O)N[C@@H](C)C(N)=O)NC(=O)[C@H](CC(C)C)NC(=O)[C@H](CCC(N)=O)NC(=O)[C@H](C)NC(=O)[C@H](Cc2c[nH]c3ccccc23)NC(=O)[C@H](Cc2ccc(O)cc2)NC(=O)[C@H](C)NC1=O)[C@@H](C)O` [compound 50] (Ac-LTF[R8]AYWAQL[S5]AHFA-NH2; staple 4-11), at MDM2 (setting [1]), the IC50 was 10 to 100 nM. For the same compound, the Ki on MDM2 (competitive FP assay, MDM2) is below 10 nM. On MDMX, the IC50 is 100 to 1000 nM and the Ki was in the range of 10 to 100 nM. Besides, in the experiment with Caspase 3, the “caspase 3 uM” value stood at 8, the “caspase 10 uM” value was 29 and the “caspase 30 uM” value turned out to be 29.

With `CC(=O)N[C@@H](CCC(=O)O)C(=O)N[C@H](C(=O)N[C@@H](Cc1ccccc1)C(=O)N[C@]1(C)CCCCCCC=CCCC[C@@](C)(C(=O)N[C@@H](CO)C(=O)N[C@@H](CC(C)C)C(=O)N[C@@H](C)C(N)=O)NC(=O)[C@H](CC(C)C)NC(=O)[C@H](CCC(N)=O)NC(=O)[C@H](C)NC(=O)[C@H](Cc2c[nH]c3ccccc23)NC(=O)[C@H](Cc2ccc(O)cc2)NC(=O)[C@H](C(C)C)NC1=O)[C@@H](C)O` [compound 127] (Ac-ETF[R8]VYWAQL[S5]SLA-NH2; staple 4-11), the IC50 on MDM2 (setting [1]) is below 10 nM. Further, at MDM2 (competitive FP assay, MDM2), the Ki is below 10 nM. At MDMX, the IC50 was 100 to 1000 nM and the Ki lay within 10 to 100 nM. For the same compound, in the experiment on Caspase 3, the “caspase 0.3 uM” value was 1, the “caspase 3 uM” value is recorded as 1, the “caspase 10 uM” value is reported as 4 and the “caspase 30 uM” value is 13.

Turning to `CC(=O)N[C@@H](C(=O)N[C@]1(C)CCCC=CCCC[C@](C)(C(=O)N[C@H](Cc2ccc(C(F)(F)F)cc2)C(=O)N[C@H](CCC(=O)O)C(=O)N[C@H](CCCCN)C(=O)N[C@H](CC(C)C)C(=O)N[C@H](CC(C)C)C(=O)N[C@H](CCCNC(=N)N)C(N)=O)NC(=O)[C@@H](C)NC(=O)[C@@H](Cc2ccc(O)cc2)NC(=O)[C@@H](Cc2c[nH]c3ccccc23)NC1=O)[C@H](C)O` [compound 752] (Ac-[dT][R5][dW][dY][dA][R5][dPhe(4-CF3)][dE][dK][dL][dL][dR]-NH2; staple 2-6), the figures for the IC50 on MDM2 (setting [1]) and on MDMX were 100 to 1000 nM and above 1000 nM, respectively.

For `CC(=O)N[C@@H](C(=O)N[C@H](C)C(=O)N[C@H](Cc1c[nH]c2ccccc12)C(=O)N[C@H](Cc1ccc(O)cc1)C(=O)N[C@]1(C)CCCC=CCCC[C@](C)(C(=O)N[C@H](CC(C)C)C(=O)N[C@H](CC(C)C)C(=O)N[C@H](CCCNC(=N)N)C(N)=O)NC(=O)[C@@H](CCC(=O)O)NC(=O)[C@@H](Cc2ccc(C(F)(F)F)cc2)NC(=O)[C@@H](CC(N)=O)NC1=O)[C@H](C)O` [compound 753] (Ac-[dT][dA][dW][dY][R5][dN][dPhe(4-CF3)][dE][R5][dL][dL][dR]-NH2; staple 5-9), the IC50 at MDM2 (setting [1]) was 10 to 100 nM; on MDMX it was above 1000 nM.

As to `CC(=O)N[C@@H](C(=O)N[C@H](C)C(=O)N[C@H](Cc1c[nH]c2ccccc12)C(=O)N[C@H](Cc1ccc(O)cc1)C(=O)N[C@H](C)C(=O)N[C@]1(C)CCCC=CCCC[C@](C)(C(=O)N[C@H](CC(C)C)C(=O)N[C@H](CCCNC(=N)N)C(N)=O)NC(=O)[C@@H](CCCCN)NC(=O)[C@@H](CCC(=O)O)NC(=O)[C@@H](Cc2ccc(C(F)(F)F)cc2)NC1=O)[C@H](C)O` [compound 754], the IC50 was 100 to 1000 nM on MDM2 (setting [1]) and above 1000 nM at MDMX.

As for `CC(=O)N[C@@H](C(=O)N[C@H](C)C(=O)N[C@H](Cc1c[nH]c2ccccc12)C(=O)N[C@H](Cc1ccc(O)cc1)C(=O)N[C@H](C)C(=O)N[C@H](CC(N)=O)C(=O)N[C@H](Cc1ccc(C(F)(F)F)cc1)C(=O)N[C@H](CCC(=O)O)C(=O)N[C@]1(C)CCCC=CCCC[C@](C)(C(=O)N[C@H](C)C(N)=O)NC(=O)[C@@H](CCCNC(=N)N)NC(=O)[C@@H](CC(C)C)NC(=O)[C@@H](CC(C)C)NC1=O)[C@H](C)O` [compound 755] (Ac-[dT][dA][dW][dY][dA][dN][dPhe(4-CF3)][dE][R5][dL][dL][dR][R5][dA]-NH2; staple 9-13), the IC50 is below 10 nM at MDM2 (setting [1]) and above 1000 nM at MDMX.

Regarding `CC(=O)N[C@@H](C(=O)N[C@@]1(C)CCCCCCC=CCCC[C@](C)(C(=O)N[C@H](CC(C)C)C(=O)N[C@H](CC(C)C)C(=O)N[C@H](CCCNC(=N)N)C(N)=O)NC(=O)[C@@H](CCC(=O)O)NC(=O)[C@@H](Cc2ccc(C(F)(F)F)cc2)NC(=O)[C@@H](CC(N)=O)NC(=O)[C@@H](C)NC(=O)[C@@H](Cc2ccc(O)cc2)NC(=O)[C@@H](Cc2c[nH]c3ccccc23)NC1=O)[C@H](C)O` [compound 756] (Ac-[dT][S8][dW][dY][dA][dN][dPhe(4-CF3)][dE][R5][dL][dL][dR]-NH2; staple 2-9), the figures for the IC50 on MDM2 (setting [1]) and at MDMX were 10 to 100 nM and above 1000 nM, respectively.

For the compound `CC(=O)N[C@@H](C(=O)N[C@H](C)C(=O)N[C@H](Cc1c[nH]c2ccccc12)C(=O)N[C@H](Cc1ccc(O)cc1)C(=O)N[C@@]1(C)CCCCCCC=CCCC[C@](C)(C(=O)N[C@H](C)C(N)=O)NC(=O)[C@@H](CC(C)C)NC(=O)[C@@H](CC(C)C)NC(=O)[C@@H](CCCCN)NC(=O)[C@@H](CCC(=O)O)NC(=O)[C@@H](Cc2ccc(C(F)(F)F)cc2)NC(=O)[C@@H](CC(N)=O)NC1=O)[C@H](C)O` [compound 757] (Ac-[dT][dA][dW][dY][S8][dN][dPhe(4-CF3)][dE][dK][dL][dL][R5][dA]-NH2; staple 5-12), the 50% inhibitory concentration (IC50) was below 10 nM at MDM2 (IC50 (MDM2)) and above 1000 nM on MDMX.

As for `CC(=O)N[C@@H](C(=O)N[C@H](C)C(=O)N[C@H](Cc1c[nH]c2ccccc12)C(=O)N[C@H](Cc1ccc(O)cc1)C(=O)N[C@H](C)C(=O)N[C@@]1(C)CCCCCCC=CCCC[C@](C)(C(=O)N[C@H](C)C(N)=O)NC(=O)[C@@H](CCCNC(=N)N)NC(=O)[C@@H](CC(C)C)NC(=O)[C@@H](CC(C)C)NC(=O)[C@@H](CCCCN)NC(=O)[C@@H](CCC(=O)O)NC(=O)[C@@H](Cc2ccc(C(F)(F)F)cc2)NC1=O)[C@H](C)O` [compound 758] (Ac-[dT][dA][dW][dY][dA][S8][dPhe(4-CF3)][dE][dK][dL][dL][dR][R5][dA]-NH2; staple 6-13), the IC50 was 10 to 100 nM on MDM2 (setting [1]) and above 1000 nM on MDMX.

What is called IC50 is the concentration that gives 50% inhibition. By Ki is commonly meant a dissociation constant, usually derived from enzyme kinetics or from competition with a known ligand.
